Experimental findings from patent US20110237541A1, “TRANSDERMALLY ADMINISTERED ALISKIREN” (priority 2008, published 2011) are described below.

The nature of series [1]: AUC of aliskiren after PO or TD delivery in telemetrized female dTG rats. The series is classed as in vivo, rat. Conditions: for AUC(0-t): double transgenic (dTG, human renin and angiotensin), rat, read-out: AUC24 h. As to the method:
The rat was lightly sedated under 2.5% isoflurane anesthesia, and its back was shaved over a 4 cm^2 area.
After complete evaporation of the DMSO solution (within 5 min after application), an occlusive transparent, waterproof film (OpSite) was taped to the back of the animal over the shaved area, and a jacket was fitted on the animal. Isoflurane inhalation was stopped, and the animal individually caged.

A short description of series [2]: Bioavailability of aliskiren after oral and transdermal administration in Sprague-Dawley rats (plasma LC-MS/MS). The series is classed as in vivo, rat. Conditions: male SD rats; for AUC: Sprague-Dawley, rat, plasma. The method, then:
Male Sprague-Dawley rats (300-400 g body weight) were purchased from Charles River Canada Corporation (188 Rue LaSalle, St-Constant, QC, J5A 1Y2, Canada). […] For oral dosing, aliskiren was dissolved in 0.5% methocel and administered via feeding tubes. The compound was dosed in a single bolus of 3 mg/5 ml/kg or 25 mg/5 ml/kg. For intravenous (IV) […] dosing, aliskiren was dissolved in 60% PEG 200 and administered in a single bolus at 0.5 mg/1 ml/kg. For transdermal delivery, aliskiren was dissolved in 100% DMSO, and applied (single application of 250 μl of solution) onto the shaved skin of the rat. The rat was lightly sedated under 2.5% isoflurane anesthesia, and its back was shaved over a 4 cm^2 area. The animal was returned to its cage to recover from anesthesia. Twenty-four hours later, the rat was lightly sedated under 2.5% isoflurane anesthesia, and the shaved area was disinfected with three passes of ethanol. After evaporation of the ethanol, a volume of […] of 100% DMSO only, or of the compound dissolved in a 100% DMSO solution was applied over the shaved area using a micropipette. After complete evaporation of the DMSO solution (within 5 min after application), an occlusive transparent, waterproof film (OpSite) was taped to the back of the animal over the shaved area, and a jacket was fitted on the animal. Isoflurane inhalation was stopped, and the animal individually caged. The jacket was removed four hours after application of the compound solution.
A blood sample (0.4 ml) was taken by tail or jugular vein bleed for the determination of compound levels, 1 h, 2 h, 4 h, 6 h, 8 h, 10 h and 24 h after either oral gavage or application on the skin of the compound dissolved in 100% DMSO solution. The animal was euthanized after the 24 h time point. […] The plasma was separated by centrifugation and stored at −20° C. pending analysis. Plasma samples were analyzed for aliskiren concentrations using liquid chromatography coupled to mass spectrometry (LC-MS/MS).

Series [3] deals with plasma renin activity (PRA). Nature of the series: Plasma renin activity (PRA) after TD delivery in double transgenic rats. Conditions: Rattus norvegicus, dTG rats, 4 h after delivery. The series is classed as in vivo.
Procedure: Pharmacokinetics and biomarkers—A blood sample (0.3 ml) was taken by tail bleed or jugular intravenous 4 h and 24 h after TD delivery to determine compound levels and plasma renin activity (PRA).
For series [4], the system named is female double transgenic (dtg) rats. Nature of the series: Mean arterial pressure by telemetry in double transgenic rats. The class given is in vivo, rat. To be noted: for max MAP decrease: versus control group. As to the method:
Female double transgenic (dtg) rats, which are transgenic for human renin and angiotensin (see, e.g., Bohlender et al., J AM SOC NEPHROL 11:2056 (2000)) were used. All animals were maintained under identical conditions and had free access to normal pelleted rat chow and water. Rats were initially treated with enalapril (1 mg/kg/day), starting 3 weeks after birth and continuing for 2 months. After approximately two weeks following cessation of enalapril treatment, the double transgenic rats are hypertensive, with mean arterial blood pressures in the range of 160-170 mmHg.
Transmitter implantation—The rats were anesthetized using isoflurane (via inhalation, 2-3%) The pressure transmitter was implanted under aseptic conditions into the peritoneal cavity with the sensing catheter placed in the descending aorta below the renal arteries pointing upstream. The transmitter was sutured to the abdominal musculature, the skin closed, and the rats were individually housed in a cage, placed on a telemetry receiver pad to enable collection of the blood pressure data during recovery from anesthesia and thereafter. The rats were singly caged for the duration of the recording of telemetry data.
Telemetry-System—Telemetry units were obtained from Data Sciences (St. Paul, Minn.). […] The tip of the catheter was filled with a viscous gel that prevents blood reflux and was coated with an antithrombogenic film. The implants (length=2.5 cm, diameter=1.2 cm) weighed 9 g and have a typical battery life of 6 months. A receiver platform (model RPC-1 from Data Sciences) connected the radio signal to digitized input that was sent to a dedicated personal computer. Arterial pressures were calibrated by using an input from an ambient-pressure reference (APR-1, Data Sciences). Systolic, mean, and diastolic blood pressures were expressed in millimeter of mercury (mmHg).
Drug administration—For oral dosing, aliskiren was dissolved in 0.5% methocel and administered via feeding tubes. The compound was dosed in a single bolus of 3 mg/5 ml/kg or 30 mg/5 ml/kg. After dosing, the rat was returned to the cage. Blood pressure data were collected up to 7 days after oral dosing.
For transdermal delivery, aliskiren was dissolved in 100% DMSO to be applied in a single application of 250 μl of solution. The rat was lightly sedated under 2.5% isoflurane anesthesia, and its back was shaved over a 4 cm^2 area. The animal was returned to the cage to recover from anesthesia. Twenty-four hours later, the rat was lightly sedated under 2.5% isoflurane anesthesia, and the shaved area disinfected with 3 passes of ethanol.
After evaporation of the ethanol, a volume of 250 μl of 100% DMSO only, or of the compound dissolved in a 100% DMSO solution was applied over the shaved area using a micropipette. After complete evaporation of the DMSO solution (within 5 min after application), an occlusive transparent, waterproof film (OpSite) was taped to the back of the animal over the shaved area, and a jacket was fitted on the animal. Isoflurane inhalation was stopped, and the animal individually caged. Blood pressure data was collected up to 5 days after application of the compound/DMSO solution.
Hemodynamic measurements—For oral delivery, double transgenic rats with implanted pressure transmitters were dosed by oral gavage with a single bolus of vehicle (5 ml/kg) or of the test substance (30 mg/5 ml/kg) (n=6 per group).
For transdermal delivery, double transgenic rats with implanted pressure transmitters were dosed with a single application of vehicle (250 μl of 100% DMSO; n=4) or of the test substance (10 mg in 250 μl of 100% DMSO, i.e. 36 mg/kg; n=5).
The mean arterial blood pressure was continuously monitored. The effect of the test substance is expressed as maximal decrease of mean arterial pressure (MAP) in the treated group versus the control group. […]

[5] abbreviates: TD, 36 mg/kg single application.

Like-named read-outs stand apart in the source and are kept apart here. Some results are limits rather than exact numbers.

For the compound `COCCCOc1cc(C[C@@H](C[C@H](N)[C@@H](O)C[C@H](C(=O)NCC(C)(C)C(N)=O)C(C)C)C(C)C)ccc1OC` [aliskiren, (2S,4S,5S,7S)-5-amino-N-(2-carbamoyl-2,2-dimethylethyl)-4-hydroxy-7-{[4-methoxy-3-(3-methoxypropoxy)phenyl]methyl}-8-methyl-2-(propan-2-yl)nonanamide], in series [1] (at the dose used (TD 36 mg/kg vs PO 30 mg/kg)), the “increase of AUC, transdermal versus oral delivery” value stood at 70 fold. The AUC(0-t) in series [1] (blood, topical, TD, 36 mg/kg) is 1.5 µM·h; in series [1] (in vivo, PO, 30 mg/kg), below 0.021 µM·h. Besides, the AUC is 0.084 µM·h in series [2] (topical, TD, 2.9 mg/kg); 0.25 µM·h in series [2] (topical, TD, 29 mg/kg); 0.0021 µM·h in series [2] (PO, 3 mg/kg); 0.058 µM·h in series [2] (PO, 25 mg/kg). Further, the F came out at 0.1% in series [2] (PO, 3 mg/kg); 0.43% in series [2] (PO, 25 mg/kg); 5.4% in series [2] (TD, 2.9 mg/kg); 1.6% in series [2] (TD, 29 mg/kg). The same compound showed an inhibition at 36 mg/kg in series [3] of 97%. Also, the ABC36 h in series [4] (PO, 30 mg/kg single bolus) was determined as 630 mmHg * hr; in series [4] (setting [5]), 1213 mmHg * hr. Moreover, the “duration (of MAP reduction)” value in series [4] (PO, 30 mg/kg single bolus) is 1.5 days; in series [4] (TD, 36 mg/kg single application, 36 mg/kg), above 3 days. For the same compound, the “max MAP decrease” value in series [4] (PO, 30 mg/kg single bolus) is 40 mmHg; in series [4] (setting [5]) it was 40 mmHg.
